PubChem BioAssay (NCI)
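Tested at 5 concentrations; 48 h exposure; 96-well plates; endpoints linearly interpolated, else capped at highest concentration. Definition used: TGI = concentration required for complete inhibition of growth.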

Experiments:
Test in all cases: NCI anticancer screen, dose series, 48 h
IGROV1 ovarian = tested on: IGROV1 ovarian
TK-10 renal = tested on: TK-10 renal
M14 melanoma = tested on: M14 melanoma
SK-OV-3 ovarian = tested on: SK-OV-3 ovarian
MDA-MB-435 = tested on: MDA-MB-435
HCT-116 colon = tested on: HCT-116 colon
SF-295 CNS = tested on: SF-295 CNS
SF-539 CNS = tested on: SF-539 CNS
NCI-H522 lung = tested on: NCI-H522 lung
MOLT-4 leukemia = tested on: MOLT-4 leukemia
KM12 colon = tested on: KM12 colon
SF-268 CNS = tested on: SF-268 CNS
NCI-H23 lung = tested on: NCI-H23 lung
SN12C renal = tested on: SN12C renal
A549 NSCLC = tested on: A549 NSCLC
NCI-H226 lung = tested on: NCI-H226 lung
CCRF-CEM leukemia = tested on: CCRF-CEM leukemia
OVCAR-5 ovarian = tested on: OVCAR-5 ovarian
MCF7 breast = tested on: MCF7 breast
HOP-92 NSCLC = tested on: HOP-92 NSCLC
HCC-2998 colon = tested on: HCC-2998 colon
COLO 205 colon = tested on: COLO 205 colon
786-0 renal = tested on: 786-0 renal
HT29 colon = tested on: HT29 colon
NCI/ADR-RES ovarian = tested on: NCI/ADR-RES ovarian
UACC-257 melanoma = tested on: UACC-257 melanoma
T-47D breast = tested on: T-47D breast
RPMI-8226 leukemia = tested on: RPMI-8226 leukemia
SR leukemia = tested on: SR leukemia
MDA-N = tested on: MDA-N
UACC-62 melanoma = tested on: UACC-62 melanoma
UO-31 renal = tested on: UO-31 renal
A498 renal = tested on: A498 renal
EKVX NSCLC = tested on: EKVX NSCLC
OVCAR-3 ovarian = tested on: OVCAR-3 ovarian
SK-MEL-2 melanoma = tested on: SK-MEL-2 melanoma
OVCAR-8 ovarian = tested on: OVCAR-8 ovarian
BT-549 breast = tested on: BT-549 breast
LOX IMVI melanoma = tested on: LOX IMVI melanoma
DU-145 prostate = tested on: DU-145 prostate
OVCAR-4 ovarian = tested on: OVCAR-4 ovarian
PC-3 prostate = tested on: PC-3 prostate
HOP-62 NSCLC = tested on: HOP-62 NSCLC
MALME-3M melanoma = tested on: MALME-3M melanoma
CAKI-1 renal = tested on: CAKI-1 renal
MDA-MB-231 breast = tested on: MDA-MB-231 breast
SW-620 colon = tested on: SW-620 colon
U251 CNS = tested on: U251 CNS
ACHN renal = tested on: ACHN renal
SK-MEL-5 melanoma = tested on: SK-MEL-5 melanoma
HCT-15 colon = tested on: HCT-15 colon
RXF 393 renal = tested on: RXF 393 renal
NCI-H460 lung = tested on: NCI-H460 lung
K-562 leukemia = tested on: K-562 leukemia
SNB-19 CNS = tested on: SNB-19 CNS
SK-MEL-28 melanoma = tested on: SK-MEL-28 melanoma
HS 578T breast = tested on: HS 578T breast
SNB-75 CNS = tested on: SNB-75 CNS

Question: Which TGI (IGROV1 ovarian) does the source give for `COc1ccc2c(c1)CC1(O)COc3cc(OC)ccc3C1O2` (stereo not drawn) here?
Answer: Its TGI is > 100 µM.

Question: What about the TGI (TK-10 renal) of the same compound?
Answer: Its TGI is > 100 µM.

Question: And the TGI (M14 melanoma)?
Answer: The TGI was > 100 µM.

Question: What about the TGI (SK-OV-3 ovarian) of the same compound?
Answer: The TGI was > 100 µM.

Question: And the TGI (MDA-MB-435)?
Answer: The TGI was > 100 µM.

Question: What about the TGI (HCT-116 colon) of the same compound?
Answer: Its TGI is > 100 µM.

Question: What about the TGI (SF-295 CNS) of the same compound?
Answer: Its TGI is > 100 µM.

Question: What about the TGI (SF-539 CNS) of the same compound?
Answer: Its TGI is > 100 µM.

Question: And the TGI (NCI-H522 lung)?
Answer: The TGI was > 100 µM.

Question: What about the TGI (MOLT-4 leukemia) of the same compound?
Answer: Its TGI is > 100 µM.

Question: And the TGI (KM12 colon)?
Answer: The TGI was > 100 µM.

Question: And the TGI (SF-268 CNS)?
Answer: Its TGI is > 100 µM.

Question: And the TGI (NCI-H23 lung)?
Answer: Its TGI is > 100 µM.

Question: And the TGI (SN12C renal)?
Answer: Its TGI is > 100 µM.

Question: And the TGI (A549 NSCLC)?
Answer: The TGI was > 100 µM.

Question: And the TGI (NCI-H226 lung)?
Answer: Its TGI is > 100 µM.

Question: And the TGI (CCRF-CEM leukemia)?
Answer: Its TGI is > 100 µM.

Question: What about the TGI (OVCAR-5 ovarian) of the same compound?
Answer: Its TGI is > 100 µM.

Question: What about the TGI (MCF7 breast) of the same compound?
Answer: The TGI was > 100 µM.

Question: And the TGI (HOP-92 NSCLC)?
Answer: Its TGI is > 100 µM.

Question: What about the TGI (HCC-2998 colon) of the same compound?
Answer: The TGI was > 100 µM.

Question: And the TGI (COLO 205 colon)?
Answer: The TGI was > 100 µM.

Question: And the TGI (786-0 renal)?
Answer: The TGI was > 100 µM.

Question: And the TGI (HT29 colon)?
Answer: The TGI was > 100 µM.

Question: What about the TGI (NCI/ADR-RES ovarian) of the same compound?
Answer: The TGI was > 100 µM.

Question: And the TGI (UACC-257 melanoma)?
Answer: Its TGI is > 100 µM.

Question: What about the TGI (T-47D breast) of the same compound?
Answer: Its TGI is > 100 µM.

Question: What about the TGI (RPMI-8226 leukemia) of the same compound?
Answer: The TGI was > 100 µM.

Question: What about the TGI (SR leukemia) of the same compound?
Answer: The TGI was > 100 µM.

Question: What about the TGI (MDA-N) of the same compound?
Answer: Its TGI is > 100 µM.

Question: And the TGI (UACC-62 melanoma)?
Answer: The TGI was > 100 µM.

Question: What about the TGI (UO-31 renal) of the same compound?
Answer: The TGI was > 100 µM.

Question: And the TGI (A498 renal)?
Answer: The TGI was > 100 µM.

Question: And the TGI (EKVX NSCLC)?
Answer: Its TGI is > 100 µM.

Question: And the TGI (OVCAR-3 ovarian)?
Answer: The TGI was > 100 µM.

Question: What about the TGI (SK-MEL-2 melanoma) of the same compound?
Answer: The TGI was > 100 µM.

Question: What about the TGI (OVCAR-8 ovarian) of the same compound?
Answer: The TGI was > 100 µM.

Question: And the TGI (BT-549 breast)?
Answer: Its TGI is > 100 µM.

Question: And the TGI (LOX IMVI melanoma)?
Answer: The TGI was > 100 µM.

Question: What about the TGI (DU-145 prostate) of the same compound?
Answer: Its TGI is > 100 µM.

Question: What about the TGI (OVCAR-4 ovarian) of the same compound?
Answer: The TGI was > 100 µM.

Question: And the TGI (PC-3 prostate)?
Answer: Its TGI is > 100 µM.

Question: And the TGI (HOP-62 NSCLC)?
Answer: The TGI was > 100 µM.

Question: And the TGI (MALME-3M melanoma)?
Answer: The TGI was > 100 µM.

Question: And the TGI (CAKI-1 renal)?
Answer: Its TGI is > 100 µM.

Question: What about the TGI (MDA-MB-231 breast) of the same compound?
Answer: Its TGI is > 100 µM.

Question: What about the TGI (SW-620 colon) of the same compound?
Answer: Its TGI is > 100 µM.

Question: And the TGI (U251 CNS)?
Answer: The TGI was > 100 µM.

Question: And the TGI (ACHN renal)?
Answer: The TGI was > 100 µM.

Question: And the TGI (SK-MEL-5 melanoma)?
Answer: Its TGI is > 100 µM.

Question: What about the TGI (HCT-15 colon) of the same compound?
Answer: The TGI was > 100 µM.

Question: Which results are given for `COc1ccc(N=N/C(=N/NC(=O)c2cc(Cl)ccc2C(=O)c2ccccc2)c2ccc(N(CCC#N)CCC#N)cc2C)cc1`?
Answer: TGI (IGROV1 ovarian): 27.7 µM; TGI (TK-10 renal): 75.1 µM; TGI (M14 melanoma): 92 µM; TGI (SK-OV-3 ovarian): > 100 µM; TGI (RXF 393 renal): 30.4 µM; TGI (MDA-MB-435): > 100 µM; TGI (HCT-116 colon): 33.5 µM; TGI (SF-295 CNS): > 100 µM; TGI (MOLT-4 leukemia): 33.8 µM; TGI (KM12 colon): > 100 µM; TGI (SF-268 CNS): > 100 µM; TGI (NCI-H460 lung): 45.3 µM; TGI (NCI-H23 lung): 61.9 µM; TGI (SN12C renal): 47.1 µM; TGI (A549 NSCLC): > 100 µM; TGI (NCI-H226 lung): 66.3 µM; TGI (CCRF-CEM leukemia): 19.8 µM; TGI (OVCAR-5 ovarian): 70 µM; TGI (MCF7 breast): > 100 µM; TGI (HCC-2998 colon): 70.8 µM; TGI (COLO 205 colon): 42.9 µM; TGI (K-562 leukemia): > 100 µM; TGI (SNB-19 CNS): > 100 µM; TGI (786-0 renal): 86.7 µM; TGI (HT29 colon): 60.8 µM; TGI (NCI/ADR-RES ovarian): 59.1 µM; TGI (UACC-257 melanoma): 81 µM; TGI (T-47D breast): 47.4 µM; TGI (RPMI-8226 leukemia): 44.4 µM; TGI (MDA-N): > 100 µM; TGI (SK-MEL-28 melanoma): > 100 µM; TGI (HS 578T breast): > 100 µM; TGI (UACC-62 melanoma): 51.8 µM; TGI (UO-31 renal): 79.3 µM; TGI (EKVX NSCLC): 61.1 µM; TGI (OVCAR-3 ovarian): 27.9 µM; TGI (SK-MEL-2 melanoma): 50 µM; TGI (OVCAR-8 ovarian): 46.1 µM; TGI (BT-549 breast): > 100 µM; TGI (DU-145 prostate): > 100 µM; TGI (OVCAR-4 ovarian): > 100 µM; TGI (PC-3 prostate): 41.4 µM; TGI (HOP-62 NSCLC): 81.2 µM; TGI (MALME-3M melanoma): 94.7 µM; TGI (CAKI-1 renal): 46 µM; TGI (MDA-MB-231 breast): 58.1 µM; TGI (SNB-75 CNS): > 100 µM; TGI (SW-620 colon): > 100 µM; TGI (U251 CNS): > 100 µM; TGI (ACHN renal): 88.7 µM; TGI (SK-MEL-5 melanoma): 31.6 µM; TGI (HCT-15 colon): 65.7 µM
